Compound	melting point [°C]
COc1cc(OC)nc(Cc2cccnc2NC(=O)OC(C)(C)C)n1	89 to 92
O=c1[nH]c(=O)c2c3c(cc([N+](=O)[O-])c2[nH]1)OCO3	285
Cc1cnc2c(c1)CCCC2NC(=S)NC(=O)c1ccccc1 (configuration not stated)	168
COc1cc(OCc2ccncc2)ccc1/C=C/c1cc(/C=C/c2ccc3cc[nH]c3c2)n[nH]1	103 to 118
CN1CCC(Cc2cc3cccnc3[nH]2)C1 (configuration not stated)	96 to 97
CC1CC2(C)C(CCC3C2CCC2(C)C(OCc4ccccc4)CCC32)CC1=O (configuration not stated)	116 to 120
CN1c2ccccc2S(=O)(=O)c2cc(C=Cc3ccc(-c4ccc(C=Cc5ccc6c(c5)S(=O)(=O)c5ccccc5N6C)cc4)cc3)ccc21	360
CC(C)OC(=O)C(=C1SC=CS1)S(=O)(=O)C(C)C	124 to 125
O=C1C(=O)c2ccccc2C2=C1SCC1(CCN(C(=O)c3ccc(-n4cccn4)cc3)CC1)O2	299 to 300
CCCCCCCCCCOc1cnc(-c2ccc(C#CCCCC(C)OC(C)=O)cc2)nc1 (configuration not stated)	57 to 58
COc1ccc(C(=O)Nc2ccc(-c3ccc(C=O)cc3C)c(C)c2)cc1CCCN(C)C	63 to 66
Cc1cnc(N)c2nc(C)n(CC(C)C)c12	178 to 180
Cc1cccc(NCCNc2cccc(C)c2C)c1C	130 to 133
CCCCCCCCCCCCCCOc1ccc(CC(=O)CO)cc1	84 to 85
CSC(=S)N1CCN(CC2=C(C)C(=O)C(C)=C(C)C2=O)CC1	133 to 135
COc1ccc(C=CC(=O)N(C)O)cc1OC	150
Cc1nccn1NCc1cc(C(C)(C)C)c(O)c(C(C)(C)C)c1	181 to 182
N=C(Nc1cc(NC(=O)/C=C/c2ccccc2Cl)cc(C(F)(F)F)c1)c1cccs1	206 to 208
CCc1nc(-c2cc3cc(OCCNC[C@H](O)COc4ccccc4)ccc3o2)no1	97 to 98
CSc1nc2cccc3c2n1CC(N(C)C)C3 (configuration not stated)	84 to 86
O=C(Cc1ccc(O)cc1)OCCC(c1ccccc1)(c1ccccc1)c1ccccc1	136 to 138
CC(=O)c1ccc(-c2ccc(F)cc2)c(O)c1	152 to 154

Compound	melting point [°C]
O=C(Nc1ccc(Oc2ccnc(NCCN3CCCCC3)n2)c2ccccc12)c1cc(F)cc(N2CCCCC2)c1	88 to 89
COc1ccc(/C=C/c2nc3ccccc3n2-c2ccccn2)cc1	146
Clc1cc(N2CCC3(CC2)OCCO3)nc(N2CCC3(CC2)OCCO3)n1	130 to 131
O=C(OCc1ccccc1)c1n[nH]c2c(=O)[nH]c3cc(Cl)ccc3c(=O)c12	254
Cc1ccccc1-n1c(C=Cc2ccccc2F)nc2cnccc2c1=O	211 to 212
CCCCCCCCOc1cc2cc(CO)c(CO)c(-c3ccnc(NN)c3)c2cc1OC	98 to 102
COc1nc2nc(C(OC(C)=O)C3(Br)C(=O)N4C(C(=O)OCc5ccc([N+](=O)[O-])cc5)=CSC43)cn2c2c1CCC2 (configuration not stated)	119
COC(=O)c1ccc(S(=O)C(Cn2ccnc2)c2ccccc2OC)cc1 (configuration not stated)	113 to 115
COC(=O)C(CCCCCCCCCCCCC(C(=O)O)C1CC1)C1CC1 (configuration not stated)	59.4 to 60.5
CN1CC(Cl)CC2c3cccc4[nH]cc(c34)CC21 (configuration not stated)	195 to 197
COC(=O)c1c(-c2ccco2)ccnc1C(=O)c1nc(OC)cc(OC)n1	135 to 140
CSc1c(O[C@H]2CC[C@@H](N(C)C)CC2)ccc2[nH]ncc12	139 to 140
Cc1nc(N)nc(C)c1Br	183 to 185
C=C1CC(C)(O)CCC2=C(C)CCC12 (configuration not stated)	54
COC(=O)C(=C/c1c(OC)cc(OC)cc1OC)/C(=C\c1ccccc1)C(N)=O	169 to 171
COc1ccc(-c2nnc(Cl)nc2-c2ccc(OC)cc2)cc1	130 to 132
CN1CCN(C(=O)OC(C)(C)C)CC1C(N)=O (configuration not stated)	137 to 138
COc1cc2nc(-c3cc(C)c(O)c(C)c3)[nH]c(=O)c2cc1OC	> 300
NC(=O)c1c(N)oc2ccccc2c1=O	264 to 266
Cc1nc2c3c(ccn2c1C)[C@H](O)[C@](O)(Cc1ccccc1)[C@@H](c1ccccc1)N3	115 to 122
FC(F)(F)Oc1ccc(-c2ccc(OCc3ccccc3)cc2)cc1	136 to 137
CCOC(=O)C1=C(C)NC(C#N)=C(C(=O)OCC)C1c1ccccc1/C=C/C(=O)OC(C)(C)C (configuration not stated)	146 to 147

Compound	melting point [°C]
CC1OP(=O)(O)c2ccccc21 (configuration not stated)	148 to 149
COc1ccc(Nc2nc(NC(CO)CO)nc(N(C)C3CCN(C)CC3)n2)cc1Cl	84
CCc1ccc(C(=O)Nc2ccccc2O)cc1	103 to 105
CCOC(=O)COc1c(C)cc(C)c2c1CCC2=O	75 to 77
Cc1c(C(=O)N2Cc3ccccc3Cc3ccccc32)csc1C(N)=O	201 to 204
Cc1c(CC(=O)O)c2cc(O)ccc2n1C(=O)c1ccc(OC(F)(F)F)cc1	193 to 195
CCCOc1ccc(-c2nc3n(c2-c2ccncc2)CCC3)cc1	148 to 150
CC(C)C(=O)CNC(=O)c1ccccc1	78 to 80
CCCNCCc1cccc(NS(=O)(=O)c2cccc(Cl)c2)c1	145 to 148
CC1CN(c2cc3ccccc3c(=O)[nH]2)CCN1 (configuration not stated)	164 to 167
O=C(Nc1cc(C(F)(F)F)cc(C(F)(F)F)c1)[C@H]1CC=CC[C@H]1C(=O)O (relative stereo)	166 to 167
CC(C)(C)c1cc(OCc2ccc(C#N)cc2)cc(C(C)(C)C)c1O	166 to 169
O=c1nc(-c2cccc(-c3cccs3)n2)sc2ccccc12	222 to 223
O=c1oc(=O)n(Cc2ccco2)c2ccccc12	131 to 133
COCc1cc(Oc2ccc3c(C(=O)Nc4ccc(C)c(C(F)(F)F)c4)cccc3c2)ncn1	188
COc1ccc(C(C)(C)C)c(O)c1C(=O)Oc1ccccc1	74 to 75
CC(C)c1nn(-c2ccccc2)c(-c2ccc(F)cc2)c1CCC=O	86 to 88
CC(C)(C)OC(=O)N1C[C@@H](F)C[C@H]1C(=O)O	158 to 159
CCOC(Nc1ccccc1)(OCC)C1(F)C=CN=C(C(=O)c2ccc(Cl)cc2)C1 (configuration not stated)	96 to 97
COc1ccc(CCC2CN(C3=Nc4cc(F)ccc4Nc4sc(C)cc43)CCN2C)cc1 (configuration not stated)	180 to 182
O=S(=O)(c1ccc(Nc2nccc(Nc3ccc(F)cc3)n2)cc1)N(CCN1CCCC1)C1CCC2(CC1)OCCO2	155
Cc1cc(-n2ncc(-c3ccc(S(C)(=O)=O)cc3)c(-c3ccc(F)cc3)c2=O)ccc1F	168 to 170

More lines, now with the values ahead:

melting point [°C]	Compound
> 210	CC(C)(C)C(=O)Nc1nc(Cl)c2ccnc-2[nH]1
128 to 134	C[C@@H](Nc1ncnc2cc(OCCOS(C)(=O)=O)c([N+](=O)[O-])cc12)c1ccccc1
59	C=CCOCC(C)OC(=O)COc1ccc(Cl)c2cccnc12 (configuration not stated)
233 to 237	CNc1nc(N)ncc1-c1cccc(Cl)c1Cl
172 to 174	CCSc1nc(NCc2ccccc2)c2ncn(C3OC(CO)C(O)C3O)c2n1 (configuration not stated)
66 to 67	CCOC(=O)c1ccc2ncccc2c1
140 to 142	CC(=O)N1c2ccc(Cl)cc2CC1C#N (configuration not stated)
90 to 91	O=C(CCSc1ccc2ccccc2c1)c1ccccc1
190 to 191	CCN(CC)S(=O)(=O)c1cc(-n2c(=O)cc(C(F)(F)F)n(C)c2=O)c(F)cc1Cl
130 to 140	CCc1ncc([N+](=O)[O-])n1CCS(=O)(=O)CC
215 to 218	CC(=O)OCC1Cn2cc(C(=O)NCc3ccc(Cl)cc3)c(=O)c3cc(CN4CCOCC4)cc(c32)O1 (configuration not stated)
193 to 195	CCc1nc2c(N)nc3ccccc3c2n1CCCCS(=O)(=O)N(C)C
> 300	CCCn1c(=O)c2nc(-c3ccc(/C=C/C(=O)O)cc3)[nH]c2n(C)c1=O
186	Cc1cc([N+](=O)[O-])ccc1NCCNC(N)=O
165 to 167	O=C(O)c1cc(=O)c(Sc2ccc(Cl)cc2)co1
226 to 228	O=C(Nc1cccc2ccnnc12)c1c(Cl)cccc1Cl
214 to 216	CCCCc1nc2c(N)nc3cc(-c4ccccc4)ccc3c2n1CCCS(C)(=O)=O
73 to 74	CC(C)Oc1ccc(N(N)C(=O)N(C)C)cc1Cl

melting point [°C]	Compound
199 to 200	Cc1nc(-c2ccccc2)nc(-c2cccc([N+](=O)[O-])c2)c1C(=O)NCCCl
174 to 176	O=C(Nc1ccc(Cl)cc1)NC1CCN(C(=O)Cc2c[nH]cn2)CC1
143 to 144	CCN1C(=O)C(Cl)(Cl)c2cc3sccc3cc21
176 to 178	COc1nn(-c2cccc(Nc3nccs3)c2)c(=O)n(Cc2ccc(Cl)cc2)c1=O
252 to 254	FC(F)(F)c1nc2cnc3ccccc3c2[nH]1
210 to 212	O=C1c2ccccc2-c2c1c1ccccc1c(=O)n2CCCl
91	CC(C(C=Cc1ccc(Cl)cc1)OCc1ccc(Cl)cc1)n1cncn1 (configuration not stated)
175 to 177	Cc1noc(NS(=O)(=O)c2nccs2)c1Br
212 to 213	CNc1nc(C(N)=O)c(-c2ccncc2)s1
109	CCS(=O)(=O)c1cc(C(=O)NCC(Cl)CCCCl)c(OC)cc1N (configuration not stated)
201 to 204	CCOC(=O)c1cn2c(C)nnc2cc1Nc1ccc(I)cc1F
117 to 118	NS(=O)(=O)CCCSc1ccc2nc(Cl)cn2n1
187 to 190	Nc1nc(-c2ccccc2)c2ncn(C3OC(CO)C(O)C3O)c2n1 (configuration not stated)
154	COC(=O)C1Cc2cc(OC)ccc2N1S(=O)(=O)c1ccc(I)cc1 (configuration not stated)
242 to 243	CC(C)Nn1c(CO)nc2c(N)nc3cccnc3c21
160	COc1ccc2c(c1)n(C1CCCCC1)c(=O)n2S(=O)(=O)c1ccc([N+](=O)[O-])cc1
148 to 150	CSCc1cn(C)c2ccc(Cl)cc2c1=O
135 to 136	CC(C)N(C=Nc1ncc(Oc2ccc(Cl)cc2)c(Cl)n1)C(C)C

From a melting point compilation (Tetko et al.; mined from patent text by program, amines drawn as free bases though some values may be those of a salt)
